# Earlier results in patent US20080207601A1, “Methods of and Compositions For the Prevention of Anxiety, Substance Abuse, and Dependence” (Hythiam , Inc., priority 2005, published 2008).
# Legend:
# allopregnanolone = conditions: clinical studies
# [1] = as much as
# [2] = in vivo
# [3] = not given; remark: listed apart in the source
smiles,measurement,setting,value
CNCCC(Oc1ccc(C(F)(F)F)cc1)c1ccccc1 (centres unmarked) [Fluoxetine],brain and cerebrospinal fluid content of allopregnanolone,allopregnanolone,increase
COc1ccc2c3c1O[C@H]1[C@@H](O)CC[C@H]4[C@@H](C2)N(C)CC[C@@]341 [DIHYDROCODEINE],potency relative to codeine,in vivo,Dihydrocodeine is approximately twice as potent as codeine; this is
COc1cccc(C2(O)CCCCC2CN(C)C)c1 (centres unmarked) [TRAMADOL],potency relative to morphine,IV/IM route,"Tramadol is approximately 10% as potent as morphine, when given"
CCCC(C)(COC(N)=O)COC(N)=O [MEPROBROMATE],ingested amount with reported survival,[1],much as 40 g.
"CCOC(=O)c1ncn2c1CN(C)C(=O)c1cc(F)ccc1-2 [flumazenil, ethyl 8-fluoro-5,6-dihydro-5-methyl-6-oxo-4H-imidazo-[1,5-a][1,4]benzodiazepine-3-carboxylate]",modulation of the GABA evoked Cl-current,"GABAA receptors; 3 μM flumazenil, ethanol withdrawn cells",potentiates
CN1C(=O)CN=C(c2ccccc2)c2cc(Cl)ccc21 [diazepam],effect on the positive modulation of 3 μM flumazenil induced by ethanol withdrawal,GABAA receptors; 10 μM diazepam substituted for ethanol,negated the positive modulation
N[C@@H]1C[C@H]1c1ccccc1 (racemic) [TRANYLCYPROMINE],time in which the drug is excreted,[2],24 h
CC(=O)[C@H]1CC[C@H]2[C@@H]3CC[C@@H]4C[C@@H](O)CC[C@]4(C)[C@H]3CC[C@]12C [epipregnanolone],effect on potentiation of GABAA receptor function by allopregnanolone and alphaxalone,GABAA receptor,inhibited
CC(=O)[C@H]1CC[C@H]2[C@@H]3CC[C@H]4C[C@@H](O)CC[C@]4(C)[C@H]3CC[C@]12C [isopregnanolone],effect on potentiation of GABAA receptor function by allopregnanolone and alphaxalone,GABAA receptor,inhibited
"C[C@]12C=CC(=O)N[C@@H]1CC[C@@H]1[C@@H]2CC[C@]2(C)[C@@H](C(=O)Nc3cc(C(F)(F)F)ccc3C(F)(F)F)CC[C@@H]12 [Dutasteride, (5α,17β)-N-{2,5 bis(trifluoromethyl)phenyl}-3-oxo-4-azaandrost-1-ene-17-carboxamide]",adverse effects compared with therapeutic dose of 0.5 mg,"[3]; daily doses of 5 mg, 60 subjects, 6 months",subjects for 6 months with no additional adverse effects to those
same,safety concerns,"[3]; single doses up to 40 mg (80 times the therapeutic dose) for 7 days, volunteer studies","without significant safety concerns. In a clinical study, daily doses"
